Reference: patent US20070010568A1, “Substituted azabicyclo hexane derivatives as muscarinic receptor antagonists” (priority 2003, published 2007)

Experiments:
M3 muscarinic receptor = target: T1, M3 muscarinic receptor (Rattus norvegicus, UniProt P08483); assay: Radioligand binding assay, [3H]-N-methylscopolamine, rat submandibular gland membranes; details: [3H]NMS, 24-25° C., read-out: Receptor Binding Assay M3 (pKi) (converted)
T1 construct: Submandibular glands and heart were isolated and placed in ice cold homogenising buffer; from tissue; host or cells: rat submandibular gland membrane homogenate
Experimental: (§1) The affinity of test compounds for M2 and M3 muscarinic receptor subtypes was determined by [^3H]-N-methylscopolamine binding studies using rat heart and submandibular gland respectively as described by Moriya et al., (Life Sci., 1999; 64 (25): 2351-2358).
(§2) Membrane preparation: Submandibular glands and heart were isolated and placed in ice cold homogenising buffer (EPES 20 mM, 10 mM EDTA, pH 7.4) immediately after sacrifice. The tissues were homogenised in 10 volumes of homogenising buffer and the homogenate was filtered through two layers of wet gauze and filtrate was centrifliged at 500 g for 10 min. The supernatant was subsequently centrifuged at 40,000 g for 20 min. The pellet thus obtained was resuspended in same volume of assay buffer (HEPES 20 mM, EDTA 5 mM, pH 7.4) and were stored at −70° C. until the time of assay.
(§3) Ligand binding assay: The compounds were dissolved and diluted in DMSO. The membrane homogenates (150-250 μg protein) were incubated in 250 μl of assay buffer (HEPES 20 mM, pH 7.4) at 24-25° C. for 3 h. Non-specific binding was determined in the presence of 1 μM atropine. The incubation was terminated by vaccum filtration over GF/B fiber filters(Wallac). The filters were then washed with ice cold 50 mM Tris HCl buffer (pH 7.4). The filter mats were dried and bound radioactivity retained on filters was counted. The IC50 & Kd were estimated by using the non-linear curve fitting program using G Pad Prism software. The value of inhibition constant Ki was calculated from competitive binding studies by using Cheng & Prusoff equation (Biochem Pharmacol, 1973,22: 3099-3108), Ki=IC50/(1+L/Kd), where L is the concentration of [^3H]NMS used in the particular experiment. pKi=−log Ki Functional Experiments Using Isolated Rat Bladder: Methodology: […]

M2 muscarinic receptor = target: T2, M2 muscarinic receptor (Rattus norvegicus, UniProt P10980); assay: Radioligand binding assay, [3H]-N-methylscopolamine, rat heart membranes; details: [3H]NMS, 24-25° C., read-out: Receptor Binding Assay M2 (pKi) (converted)
T2 construct: Submandibular glands and heart were isolated and placed in ice cold homogenising buffer; from tissue; host or cells: rat heart membrane homogenate
T2 sequence (P10980 1-466): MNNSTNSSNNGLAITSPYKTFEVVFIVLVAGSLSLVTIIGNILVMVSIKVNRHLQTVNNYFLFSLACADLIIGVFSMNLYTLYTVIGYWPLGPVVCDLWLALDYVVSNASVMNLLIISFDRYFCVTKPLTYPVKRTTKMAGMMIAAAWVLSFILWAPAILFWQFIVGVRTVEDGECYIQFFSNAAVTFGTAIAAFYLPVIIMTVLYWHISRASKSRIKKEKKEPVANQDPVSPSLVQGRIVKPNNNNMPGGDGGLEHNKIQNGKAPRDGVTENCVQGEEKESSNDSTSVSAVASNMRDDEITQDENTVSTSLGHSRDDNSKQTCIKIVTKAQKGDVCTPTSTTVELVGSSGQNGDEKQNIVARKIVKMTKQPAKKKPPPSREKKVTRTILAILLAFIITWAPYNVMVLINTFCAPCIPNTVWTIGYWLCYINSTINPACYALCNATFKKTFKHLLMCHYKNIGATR
Experimental: as §1, §2, §3

T1 sequence (P08483 whole entry): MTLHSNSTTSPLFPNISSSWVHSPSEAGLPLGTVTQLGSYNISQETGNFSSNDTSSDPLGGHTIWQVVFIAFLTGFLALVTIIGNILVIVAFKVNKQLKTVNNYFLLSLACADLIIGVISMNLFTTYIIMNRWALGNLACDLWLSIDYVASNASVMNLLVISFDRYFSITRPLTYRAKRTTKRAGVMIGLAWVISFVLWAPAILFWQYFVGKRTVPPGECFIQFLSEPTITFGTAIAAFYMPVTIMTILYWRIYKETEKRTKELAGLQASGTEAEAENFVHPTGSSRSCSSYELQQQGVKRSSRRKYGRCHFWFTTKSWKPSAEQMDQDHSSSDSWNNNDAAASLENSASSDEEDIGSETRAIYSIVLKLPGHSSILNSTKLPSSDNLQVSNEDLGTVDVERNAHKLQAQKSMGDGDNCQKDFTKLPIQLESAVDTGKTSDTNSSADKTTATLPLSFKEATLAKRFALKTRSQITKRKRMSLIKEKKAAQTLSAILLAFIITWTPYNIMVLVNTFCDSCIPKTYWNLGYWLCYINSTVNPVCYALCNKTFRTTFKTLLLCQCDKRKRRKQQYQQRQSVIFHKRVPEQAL

Row | Compound | Ki (M3 muscarinic receptor) [nM] | Ki (M2 muscarinic receptor) [nM]
1 | CCCOC(C(=O)N[C@H]1[C@@H]2CNC[C@@H]21)(c1ccc(F)cc1)c1ccc(F)cc1 [Compound No. 8, (1α, 5α, 6α)-N-[3-azabicyclo[3.1.0]-hexyl-6-amino-yl]-2-propyloxy-2,2-bis-4-fluorophenyl acetamide] | > 1000 | > 1000
2 | O=C(CC(c1ccccc1)(c1ccccc1)c1ccccc1)N[C@H]1[C@@H]2CN(CC(=O)c3ccc4c(c3)CCO4)C[C@@H]21 [Compound No. 4, (1α, 5α, 6α)-N-[3-{2-oxo-2-(2,3-dihydrobenzofuran-5-yl)ethyl}-3-azabicyclo[3.1.0]-hexyl-6-amino-yl]-3,3,3-triphenyl propionamide] | > 1000 | > 1000
3 | O=C(N[C@H]1[C@@H]2CNC[C@@H]21)C(O)(c1ccc(F)cc1)c1ccc(F)cc1 [Compound No. 7, (1α, 5α, 6α)-N-[3-azabicylo[3.1.0]-hexyl-6-amino-yl]-2-hydroxy-2,2-bis-4-fluorophenyl acetamide] | > 1000 | > 1000

Continued, values first:

Row | Ki (M3 muscarinic receptor) [nM] | Ki (M2 muscarinic receptor) [nM] | Compound
4 | > 1000 | > 1000 | O=C(CCNC(=O)CNC(=O)CC(c1ccccc1)(c1ccccc1)c1ccccc1)NC[C@@H]1[C@H]2CN(Cc3ccccc3)C[C@@H]12 [Compound No. 5, (1α, 5α, 6α)-N-[(3-oxopropyl)amino-2-oxoethyl-3-benzyl-3-azabicyclo [3.1.0]-hexyl-6-aminomethyl]-3,3,3-triphenyl propionamide]
5 | > 1000 | > 1000 | CC(C)=CCCN1C[C@@H]2[C@H](C1)[C@H]2NC(=O)CC(c1ccccc1)(c1ccccc1)c1ccccc1 [Compound No. 2, (1α, 5α, 6α)-N-[3-(4-methyl-3-pentenyl)-3-azabicyclo[3.1.0]-hexyl-6-amino-yl]-3,3,3-triphenyl propionamide]
6 | > 1000 | > 1000 | O=C(CNC(=O)CC(c1ccccc1)(c1ccccc1)c1ccccc1)NCCC(=O)N[C@H]1[C@@H]2CN(Cc3ccccc3)C[C@@H]21 [Compound No. 6, (1α, 5α, 6α)-N-[(3-oxopropyl]amino-2-oxoethyl-3-benzyl-3-azabicyclo [3.1.0]-hexyl-6-amino-yl]-3,3,3-triphenyl propionamide]
7 | > 1000 | > 1000 | O=C(CC(c1ccccc1)(c1ccccc1)c1ccccc1)N[C@H]1[C@@H]2CN(Cc3ccccc3)C[C@@H]21 [Compound No. 1, (1α, 5α, 6α)-N-[3-benzyl-3-azabicyclo[3.1.0]-hexyl-6-amino-yl]-3,3,3-triphenylpropionaniide]
8 | > 1000 | > 1000 | O=C(CC(c1ccccc1)(c1ccccc1)c1ccccc1)N[C@H]1[C@@H]2CN(CCc3ccc4c(c3)OCO4)C[C@@H]21 [Compound No. 3, (1α, 5α, 6α)-N-[3-{2-(3,4-methylenedioxy-phenyl)ethyl}-3-azabicyclo [3.1.0]-hexyl-6-amino-yl]-3,3,3-triphenylpropionamide]
